Where a name gives a salt, the structure may show the parent alone.
Tests used:
[1] = molecular target: hERG (human ether-à-go-go-related gene) channel expressed in CHO cells (Homo sapiens, UniProt Q12809); assay: ScreenPatch assay, hERG ion channel block (SyncroPatch 384PE patch clamp); settings: for Methadone Active Agent/Methadone Ratio (hERG IC50): IC50 relative to racemic methadone HCl
[2] = Maximally tolerated dose study by oral gavage administration

Chain of hERG (human ether-à-go-go-related gene) channel expressed in CHO cells (Q12809 whole entry): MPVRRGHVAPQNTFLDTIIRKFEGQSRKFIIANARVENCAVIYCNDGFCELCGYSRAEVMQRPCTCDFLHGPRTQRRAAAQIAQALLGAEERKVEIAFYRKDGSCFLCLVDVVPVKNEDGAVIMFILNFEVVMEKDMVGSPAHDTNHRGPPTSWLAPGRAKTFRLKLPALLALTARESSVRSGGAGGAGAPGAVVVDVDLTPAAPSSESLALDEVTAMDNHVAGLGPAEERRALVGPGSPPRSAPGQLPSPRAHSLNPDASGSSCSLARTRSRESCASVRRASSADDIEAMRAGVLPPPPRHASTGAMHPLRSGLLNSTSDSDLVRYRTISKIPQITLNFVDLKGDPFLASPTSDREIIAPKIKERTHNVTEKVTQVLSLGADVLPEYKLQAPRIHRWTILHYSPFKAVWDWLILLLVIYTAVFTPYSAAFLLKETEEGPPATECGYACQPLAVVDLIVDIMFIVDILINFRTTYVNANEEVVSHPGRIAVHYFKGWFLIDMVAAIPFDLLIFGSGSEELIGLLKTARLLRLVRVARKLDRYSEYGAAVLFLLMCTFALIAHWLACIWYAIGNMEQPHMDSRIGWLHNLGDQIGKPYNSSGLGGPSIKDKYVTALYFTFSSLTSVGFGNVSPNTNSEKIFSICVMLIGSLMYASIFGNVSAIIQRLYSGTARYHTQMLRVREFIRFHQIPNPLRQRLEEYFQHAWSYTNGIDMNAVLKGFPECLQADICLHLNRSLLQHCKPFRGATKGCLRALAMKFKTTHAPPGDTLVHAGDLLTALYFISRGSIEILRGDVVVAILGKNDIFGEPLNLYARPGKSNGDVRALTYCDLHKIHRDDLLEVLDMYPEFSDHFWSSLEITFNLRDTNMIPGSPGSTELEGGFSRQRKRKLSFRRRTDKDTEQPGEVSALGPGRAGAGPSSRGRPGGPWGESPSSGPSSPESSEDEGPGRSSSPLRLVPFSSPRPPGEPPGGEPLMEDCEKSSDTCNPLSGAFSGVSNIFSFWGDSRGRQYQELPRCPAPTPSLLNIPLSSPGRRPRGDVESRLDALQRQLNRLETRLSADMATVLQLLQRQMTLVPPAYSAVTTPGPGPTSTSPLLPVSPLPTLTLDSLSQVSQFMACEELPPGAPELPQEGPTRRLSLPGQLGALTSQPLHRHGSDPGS

| SMILES | IC50 [1] | clinical observations ([2]; doses up to 100 mg/kg) | Methadone Active Agent/Methadone Ratio (hERG IC50) [1] | clinical observations ([2]; 100 mg/kg and 125 mg/kg) | clinical observations ([2]; 50 and 75 mg/kg) |
| --- | --- | --- | --- | --- | --- |
| CCC(=O)C(CC(C)N(C)C)(c1ccccc1)c1ccccc1 (racemic) [Racemic Methadone HCl, Methadone] | 1.89 µM | – | – | – | – |
| C/C=C(/OC(=O)N(C)C(C)CNC(=O)[C@H](CCCNC(=N)N)NC(=O)c1ccccc1)C(C[C@@H](C)N(C)C)(c1ccccc1)c1ccccc1.O=C(O)C(F)(F)F (stereo partly drawn) [Levo 1ME active agent, (R)-6-(dimethylamino)-4,4-diphenylhept-2-en-3-yl (1-((S)-2-benzamido-5-guanidinopentanamido)propan-2-yl)(methyl)carbamate 2,2,2-trifluoroacetate] | > 100 µM | did not have any clinical observations | >53 | – | – |
| C/C=C(/OC(=O)N(C)C[C@@H](C)NC(=O)[C@H](CCCNC(=N)N)NC(=O)c1ccccc1)C(C[C@@H](C)N(C)C)(c1ccccc1)c1ccccc1.O=C(O)C(F)(F)F [Levo 2RME active agent, (R)-6-(dimethylamino)-4,4-diphenylhept-2-en-3-yl ((R)-2-((S)-2-benzamido-5-guanidinopentanamido)propyl)(methyl)carbamate 2,2,2-trifluoroacetate] | 29.4 µM | – | 15.6 | no clinical observations through 72 hr period or limited observations | some observations |
| C/C=C(/OC(=O)N(C)CCCCNC(=O)[C@H](CCCNC(=N)N)NC(=O)c1ccccc1)C(C[C@@H](C)N(C)C)(c1ccccc1)c1ccccc1.O=C(O)C(F)(F)F [Levo-Butyl active agent, (R)-6-(dimethylamino)-4,4-diphenylhept-2-en-3-yl (4-((S)-2-benzamido-5-guanidinopentanamido)butyl)(methyl)carbamate 2,2,2-trifluoroacetate] | 51.5 µM | – | 27.3 | no clinical observations through 72 hr period or limited observations | some observations |
